“Also recorded” adds a separate entry of the source. Where two headings read alike, the source gives them in different places.
How the values were obtained:
[1] = system: 3-day old biofilm of artificial mouth consortium of bacteria (A. naeslundii, S. oralis, V. parvula, L. casei, F. nucleatum) and S. mutans; experiment: In vitro removal of a 3-day old biofilm (optical density reduction); format: cell-based; details: for Percent Biofilm Removal (BMIM Cationic Series): […] BMIM-based ionic liquids in base prototype mouth rinse of Table 1
[2] = In-vitro removal of tooth stains / teeth whitening (L*a*b*); design: species or system human; details: 1M in prototype whitening mouthwash base (Table 7); teeth soaked one hour
[3] = system: A. viscosus; experiment: Short Interval Kill Test (SIKT); format: cell-based; details: 0.3, 0.6 and 1 wt % in prototype mouth rinse of Table 9
Description: SIKT determines the kill effect of a test article at a predetermined exposure time. […] The reaction was neutralized after 30 seconds by adding a neutralizing broth. The reaction mixture was further diluted and plated on MCA (Microbial Count Agar) plates for viable bacterial count.

[4] = system: A. viscosus; experiment: Minimum inhibitory concentration; format: cell-based; details: Actinomyces viscosus; 24 hours incubation, optical density at 610 nm
[5] = system: A. viscosus; experiment: Growth inhibition of A. viscosus (optical density over time); format: cell-based
Procedure: DMIM chloride was incorporated into a prototype mouth rinse as illustrated in Table 9. […] The growth inhibition was measured as a change in optical density over time.

[6] = system: Dental plaque samples; experiment: Dissolution of plaque (visual pellet after centrifugation); details: water-insoluble plaque, ionic liquid added, vortex mixed at room temperature, centrifuged at 13,000 g
[7] = […] ionic liquid in base prototype mouth rinse of Table 1, 15 minutes, relative to water
[8] = direct comparison between EMIM and BMIM with different anions

Molecule | Percent Removal of a 3-day Oral Biofilm [1] [%] | Percent Biofilm Removal (BMIM Cationic Series) [1] [%] | Percent Removal of a 3-day Oral Biofilm [1, 7] [%] | Percent Biofilm Removed (EMIM vs BMIM comparison) [1, 8] [%] | also measured
1,2,3-trimethylimidazolium methyl sulfate [TMIM MeSO4] | 51.8 |  |  |  | Percent Biofilm Removed (Other Ionic Liquids) [1]: 51.8%
1-butyl-3-methylimidazolium methyl sulfate [BMIM MeSO4] |  | 53.9 | 53.9 |  | 
1-butyl-3-methylimidazolium octyl sulfate [BMIM Octyl SO4] |  | 58.6 | 58.6 |  | 
1-ethyl-3-methylimidazolium diethyl phosphate [EMIM diethyl PO4] |  |  | 52.7 |  | 
1-ethyl-3-methylimidazolium ethyl sulfate [EMIM Ethyl SO4] | 48.1 |  |  |  | ΔE [2]: 4.41; ΔL [2]: 3.40; ΔW [2]: −2.99
C=CCn1cc[n+](C)c1.[Cl-] [AMIM Cl, 1-allyl-3-methylimidazolium chloride] | 44.8 |  |  |  | Percent Biofilm Removed (Other Ionic Liquids) [1]: 44.8%; biofilm removal, comparison in words [1]: effective in removing biofilm
CCCCn1cc[n+](C)c1.[Br-] [BMIM Br, 1-butyl-3-methylimidazolium bromide] |  | 48.0 | 48.0 | 48.0 | 
CCCCn1cc[n+](C)c1.[Cl-] [BMIM Cl, 1-butyl-3-methylimidazolium chloride] |  | 43.8 | 43.8 | 43.8 | 
CC(=O)[O-].CCCCn1cc[n+](C)c1 [BMIM OAc, 1-butyl-3-methylimidazolium acetate] |  | 55.8 | 55.9 | 55.8 | 
CCCCCCCCCCn1cc[n+](C)c1.[Cl-] [DMIM Cl, 1-decyl-3-methylimidazolium chloride] |  |  | 57.3 |  | time to kill A. viscosus [3]: ≤ 30 s; biofilm removal, comparison in words ([1]; comment on Tables 2 and 6, listed as DMIM chloride): significantly more effective in removing biofilm than EMIM chloride and BMIM chloride; also recorded: most effective in removing biofilm; Percent Biofilm Removed (Other Ionic Liquids) ([1]; protocol of Example 2): 57.3%; MIC [4]: 125 µg/mL; growth inhibition of A. viscosus ([5]; 0.312 wt % in prototype mouth rinse): Growth inhibition of A.viscosus is maintained; growth inhibition of A. viscosus ([5]; 1 wt % in prototype mouth rinse (Table 9), versus mouthwash containing cetylpyridinium chloride): greater growth inhibition of A. viscosus than a mouthwash containing cetylpyridinium chloride
CCn1cc[n+](C)c1.[Br-] [EMIM Br, 1-ethyl-3-methylimidazolium bromide] |  |  | 48.6 | 48.6 | plaque dissolution (size of the plaque pellet) [6]: size of the plaque pellet is reduced
CCn1cc[n+](C)c1.[Cl-] [EMIM Cl, 1-ethyl-3-methylimidazolium chloride] | 44.3 |  |  |  | Percent Biofilm Removed (EMIM vs BMIM comparison) [1]: 44.3%
CC(=O)[O-].CCn1cc[n+](C)c1 [EMIM OAc, 1-ethyl-3-methylimidazolium acetate] |  |  | 52.1 | 52.1 | 
CCn1cc[n+](C)c1.Cc1ccc(S(=O)(=O)[O-])cc1 [EMIM Tosylate, 1-ethyl-3-methylimidazolium tosylate] |  |  | 59.5 |  | 
COS(=O)(=O)[O-].Cc1cc[n+](C)n1C [MMMPz MeSO4, 1,2,3-trimethylpyrazolium (MMMPZ) methyl sulfate] |  |  | 57.8 |  | Percent Biofilm Removed (Other Ionic Liquids) ([1]; protocol of Example 2): 57.9%
tris(2-hydroxyethyl)methylammonium sulfate [MTEOA MeSO4] | 52.8 |  |  |  | Percent Biofilm Removed (Other Ionic Liquids) [1]: 52.8%

Source: patent publication US20150328116A1, “Oral Care Composition Containing Ionic Liquids” (COLGATE-PALMOLIVE COMPANY, priority 2012, published 2015)
